Source: patent publication US7517889B2, “2,6-substituted-4-monosubstitutedamino-pyrimidine as prostaglandin D2 receptor antagonists” (Aventis Pharmaceuticals, Inc., priority 2004, dated 2009)
Structures can show the parent of a compound that is named as a salt.

biological target: T1, DP receptor (Homo sapiens, UniProt Q13258); assay: SPA cAMP assay in human LS174 T cells (human DP functional assay); format: cell-based; settings: inhibition of PGD2 (15 nM final) stimulated cAMP, LS174T cells expressing endogenous DP receptor
T1 construct: the human cell line LS174T, which expresses the endogenous DP receptor; endogenous in cells; host or cells: LS174T human cell line
T1 sequence (Q13258 1-359): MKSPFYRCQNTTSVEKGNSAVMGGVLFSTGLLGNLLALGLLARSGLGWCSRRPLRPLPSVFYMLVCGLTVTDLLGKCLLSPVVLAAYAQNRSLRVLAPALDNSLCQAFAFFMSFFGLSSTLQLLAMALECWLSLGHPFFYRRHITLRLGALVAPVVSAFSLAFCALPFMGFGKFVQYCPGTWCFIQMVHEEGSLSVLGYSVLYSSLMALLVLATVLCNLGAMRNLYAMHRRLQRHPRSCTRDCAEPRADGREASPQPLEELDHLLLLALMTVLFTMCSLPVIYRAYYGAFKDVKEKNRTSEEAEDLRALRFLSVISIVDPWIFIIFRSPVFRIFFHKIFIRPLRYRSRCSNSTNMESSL
In short: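 LS174T cells with endogenous DP receptor, 45,000/well seeded overnight, exposed to compounds at 11 points for 15 min at 37 °C in buffer containing IBMX, with PGD2 stimulation.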

`COc1ccc(CCNc2cc(-c3ccc(N4CCOCC4)cc3)nc(OC)n2)cc1` [Example 10(k), [2-Methoxy-6-(4-morpholin-4-yl-phenyl)-pyrimidin-4-yl]-[2-(4-methoxy-phenyl)-ethyl]-amine] and `COc1ccc(CCNc2cc(-c3ccc4c(c3)CCO4)nc(OC)n2)cc1` [Example 10(j), [6-(2,3-Dihydro-benzofuran-5-yl)-2-methoxy-pyrimidin-4-yl]-[2-(4-methoxy-phenyl)-ethyl]-amine] are the same in IC50: 0.013 µM for the first, 0.013 µM for the second.

Going from `COc1nc(NCCc2ccc(Cl)cc2Cl)cc(-c2cccc(C(C)(C)C(=O)OCC(O)CO)c2)n1` (centres unmarked) [Example 89, 2-(3-{6-[2-(2,4-Dichloro-phenyl)-ethylamino]-2-methoxy-pyrimidin-4-yl}-phenyl)-2-methyl-propionic acid 2,3-dihydroxy-propyl ester] to `COc1nc(NCCc2ccc(Cl)cc2Cl)cc(-c2cccc(C(C)(C)C(=O)Nc3nnn[nH]3)c2)n1` [Example 95(e), 2-(3-{6-[2-(2,4-Dichloro-phenyl)-ethylamino]-2-methoxy-pyrimidin-4-yl}-phenyl)-N-(1H-tetrazol-5-yl)-isobutyramide], the IC50 falls from 0.018 µM to less than 0.001 µM. The second is the more potent here.

Going from `COc1nc(NCCc2ccc(C(F)(F)F)cc2F)cc(-c2cccc(CCNC(C)=O)c2)n1` [Example 65, N-[2-(3-{6-[2-(2-Fluoro-4-trifluoromethyl-phenyl)-ethylamino]-2-methoxy-pyrimidin-4-yl}-phenyl)-ethyl]-acetamide hydrochloride] to `COc1nc(NCCc2ccc(OC(F)(F)F)cc2)cc(-c2cccc(NC(C)=O)c2)n1` [Example 6(a), N-(3-{2-Methoxy-6-[2-(4-trifluoromethoxy-phenyl)-ethylamino]-pyrimidin-4-yl}phenyl)-acetamide], the IC50 falls from 0.037 µM to 0.0048 µM (7.7-fold). The second is the more potent here.

Compared with `COc1nc(NCCc2ccc(OC(F)(F)F)cc2)cc(-c2cccc(C3(C(=O)NS(C)(=O)=O)CCOCC3)c2)n1` [Example 84(a), N-[4-(3-{2-Methoxy-6-[2-(4-trifluoromethoxy-phenyl)-ethylamino]-pyrimidin-4-yl}-phenyl)-tetrahydro-pyran-4-carbonyl]-methanesulfonamide], `COc1ccc(CCNc2cc(-c3cccc(O)c3)nc(OC)n2)cc1` [Example 15(a), 3-{2-Methoxy-6-[2-(4-methoxy-phenyl)-ethylamino]-pyrimidin-4-yl}-phenol hydrochloride] is 7-fold lower in IC50: 0.0007 µM for the first, 0.0001 µM for the second.

Going from `COc1nc(NCC(F)(F)c2ccccc2)cc(-c2cccc(C(C)(C)C(=O)O)c2)n1` [Example 67, 2-{3-[6-(2,2-Difluoro-2-phenyl-ethylamino)-2-methoxy-pyrimidin-4-yl]-phenyl}-2-methyl-propionic acid] to `COc1nc(NCC2CN(C)c3ccccc3O2)cc(-c2cccc(C(C)(C)C(=O)O)c2)n1` (centres unmarked) [Example 92, 2-(3-{2-Methoxy-6-[(4-methyl-3,4-dihydro-2H-benzo[1,4]oxazin-2-ylmethyl)-amino]-pyrimidin-4-yl}-phenyl)-2-methyl-propionic acid], the IC50 rises from 0.038 µM to 0.278 µM (7.3-fold). The first is the more potent here.

`COc1nc(NCCc2ccc(Cl)cc2Cl)cc(-c2cccc(C(C)(C)c3nnn[nH]3)c2)n1` [Example 47, hydrochloride] and `COc1nc(NCCc2ccc(Cl)cc2Cl)cc(-c2cccc(C3(C(=O)O)CCCC3)c2)n1` [Example 74, 1-(3-{6-[2-(2,4-Dichloro-phenyl)-ethylamino]-2-methoxy-pyrimidin-4-yl}-phenyl)-cyclopentanecarboxylic acid hydrochloride] are within 1.5-fold of each other in IC50: 0.0004 µM for the first, 0.0005 µM for the second.

Going from `COc1nc(NC(C)Cc2ccc(Cl)cc2)cc(-c2ccc(OC)c(OC)c2)n1` (centres unmarked) [Example 43(a), [2-(4-Chloro-phenyl)-1-methyl-ethyl]-[6-(3,4-dimethoxy-phenyl)-2-methoxy-pyrimidin-4-yl]-amine] to `COc1ccc(CCNc2cc(-c3ccc4cn[nH]c4c3)nc(OC)n2)cc1` [Example 53(b), [6-(1H-Indazol-6-yl)-2-methoxy-pyrimidin-4-yl]-[2-(4-methoxy-phenyl)-ethyl]-amine], the IC50 falls from 1.73 µM to 0.00095 µM (1800-fold).
